Measured values: patent US8618151B2, “Inhibitors of HCV NS5A” (Presidio Pharmaceuticals, Inc., priority 2008, dated 2013)

System: HCV genotype 1b replicon
Assay: HCV replicon assay (1b_Huh-Luc/Neo-ET cell line, luciferase readout)
Assay type: cell-based
Conditions: Hepatitis C virus, Huh-7, 72 h, read-out: Inhibition of HCV genotype 1b
Method in brief: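 Luciferase activity (Bright-Glo) after 72 h compound exposure, in triplicate, measured replicon levels in Huh 7-derived 1b_Huh-Luc/Neo-ET cells. EC50 was fitted from percent-of-control values and determined in repeat runs.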

## COC(=O)NC(C(=O)N1CCC[C@H]1c1nc(-c2ccc3cc(-c4ccc(-c5cnc([C@@H]6CCCN6C(=O)[C@H](NC(=O)NC(C)(C)C)c6ccccc6)[nH]5)cc4)ccc3c2)c[nH]1)C(C)C (some centres unmarked) [compound 25]
  EC50: < 1 nM

## CNC(=O)N[C@@H](C(=O)N1CCC[C@H]1c1nc(-c2ccc3cc(-c4ccc(-c5cnc([C@@H]6CCCN6C(=O)[C@@H](NC(=O)OC)C(C)C)[nH]5)cc4)ccc3c2)c[nH]1)c1ccccc1 [14s]
  EC50: < 1 nM

## COC(=O)N[C@H](C(=O)N1CCC[C@H]1c1ncc(-c2ccc3nc(-c4ccc(-c5cnc([C@@H]6CCCN6C(=O)[C@@H](NC(=O)OC)C(C)C)[nH]5)c(F)c4)ccc3c2)[nH]1)C(C)C [compound 126]
  EC50: < 1 nM

## COC(=O)N[C@H](C(=O)N1CCC[C@H]1c1nc(-c2cnc3cc(-c4ccc(-c5cnc([C@@H]6CCCN6C(=O)[C@H](NC(=O)OC)c6ccccc6)[nH]5)cc4)ccc3c2)c[nH]1)C1CCOCC1 [compound 71]
  EC50: < 1 nM

## COC(=O)N[C@H](C(=O)N1CCC[C@H]1c1nc2ccc3cc(-c4ccc5cc(-c6cnc([C@@H]7CCCN7C(=O)[C@H](NC(=O)OC7CCOCC7)c7ccccc7)[nH]6)ccc5n4)ccc3c2[nH]1)C(C)C [compound 299]
  EC50: < 1 nM

## COC(=O)N[C@H](C(=O)N1CCC[C@H]1c1nc(-c2ccc3cc(-c4ccc(-c5cnc([C@@H]6CCCN6C(=O)[C@@H](NC(=O)OC)[C@@H](C)O)[nH]5)cc4)ccc3c2)c[nH]1)[C@@H](C)O [compound 4]
  EC50: < 1 nM

## COC(=O)N[C@H](C(=O)N1CCC[C@H]1c1nc(-c2ccc3cc(-c4ccc(-c5cnc([C@@H]6CCCN6C(=O)[C@H](NC(=O)OC)c6ccccc6)[nH]5)cn4)ccc3c2)c[nH]1)C(C)C [compound 56]
  EC50: < 1 nM

## CNC(=O)N[C@@H](C(=O)N1CCC[C@H]1c1ncc(-c2ccc3cc(-c4ccc5nc([C@@H]6CCCN6C(=O)[C@@H](NC(=O)OC)C(C)C)[nH]c5c4)ccc3c2)[nH]1)c1ccccc1 [compound 186]
  EC50: < 1 nM

## COC(=O)N[C@H](C(=O)N1CCC[C@H]1c1nc(-c2ccc3cc(-c4ccc(-c5cnc([C@@H]6CCCN6C(=O)[C@H](NC(=O)OC)c6ccccc6)[nH]5)cc4C)ccc3c2)c[nH]1)C(C)C [compound 69]
  EC50: < 1 nM

## COC(=O)N[C@H](C(=O)N1CCC[C@H]1c1ncc(-c2ccc(-c3ccc4nc(-c5c[nH]c([C@@H]6CCCN6C(=O)[C@H](NC(=O)OC)c6ccccc6)n5)ccc4c3)cc2)[nH]1)C(C)C [compound 103]
  EC50: < 1 nM

## COC(=O)N[C@H](C(=O)N1CCC[C@H]1c1ncc(-c2cnc3cc(-c4ccc5nc([C@@H]6CCCN6C(=O)[C@@H](NC(=O)OC)C6CCOCC6)[nH]c5c4)ccc3c2)[nH]1)C(C)C [compound 192]
  EC50: < 1 nM

## COC(=O)N[C@H](C(=O)N1CCC[C@H]1c1ncc(-c2ccc(-c3nc4cc(-c5cnc([C@@H]6CCCN6C(=O)[C@@H](NC(=O)OC)C6CC6)[nH]5)ccc4o3)cc2)[nH]1)C1CC1 [compound 239]
  EC50: < 1 nM

## COC(=O)N[C@H](C(=O)N1CCC[C@H]1c1nc2c([nH]1)-c1ccc(-c3cc4ccc(-c5cnc([C@@H]6CCCN6C(=O)[C@@H](NC(=O)OC)C6CCOCC6)[nH]5)cc4cn3)cc1CC2)C(C)C [compound 293]
  EC50: < 1 nM

## COC(=O)N[C@H](C(=O)N1CCC[C@H]1c1nc(-c2ccc3cc(-c4ccc(-c5cnc([C@@H]6CCCN6C(=O)[C@H](NC(=O)N6CC[C@H](O)C6)c6ccccc6)[nH]5)cc4)ccc3c2)c[nH]1)C(C)C [compound 16]
  EC50: < 1 nM

## COC(=O)N[C@H](C(=O)N1CCC[C@H]1c1nc(C2CNc3cc(-c4ccc(-c5cnc([C@@H]6CCCN6C(=O)[C@H](NC(=O)OC6CCOCC6)c6ccccc6)[nH]5)cc4)ccc3C2)c[nH]1)C(C)C (some centres unmarked) [compound 291]
  EC50: < 1 nM

## COC(=O)N[C@H](C(=O)N1CCC[C@H]1c1ncc(-c2ccc3cc(-c4ccc5nc([C@@H]6CCCN6C(=O)[C@@H](NC(=O)OC)C(C)C)[nH]c5c4)ncc3c2)[nH]1)C(C)C [compound 204]
  EC50: < 1 nM

## COC(=O)N[C@H](C(=O)N1CCC[C@H]1c1nc2ccc3cc(-c4ccc5cc(-c6cnc([C@@H]7CCCN7C(=O)[C@H](NC(=O)OC)c7ccccc7)[nH]6)ccc5n4)ccc3c2[nH]1)C(C)C [compound 298]
  EC50: < 1 nM

## COC(=O)N[C@H](C(=O)N1CCC[C@H]1c1nc(-c2ccc3nc(-c4ccc(-c5cnc([C@@H]6CCCN6C(=O)[C@@H](NC(=O)OC)C6CCOCC6)[nH]5)cc4F)ccc3c2)c[nH]1)C1CCOCC1 [compound 98]
  EC50: < 1 nM

## COC(=O)N[C@H](C(=O)N1CCOC[C@H]1c1ncc(-c2ccc(-c3ccc4cc(-c5cnc([C@@H]6CCCN6C(=O)[C@H](NC(=O)OC)c6ccccc6)[nH]5)ccc4c3)cc2)[nH]1)C(C)C [compound 137]
  EC50: < 1 nM

## COC(=O)N[C@H](C(=O)N1CCC[C@H]1c1nc(-c2ccc3cc(-c4ccc(-c5cnc([C@@H]6CCCN6C(=O)[C@@H](NC(=O)OC)C(C)C)[nH]5)cc4)cnc3c2)c[nH]1)C(C)C [compound 21]
  EC50: < 1 nM

## COC(=O)N[C@H](C(=O)N1CCC[C@H]1c1ncc(-c2ccc3cc(-c4ccc(-c5cnc([C@@H]6COCCN6C(=O)[C@@H](NC(=O)OC)C(C)C)[nH]5)cc4)ccc3c2)[nH]1)C(C)C [compound 139]
  EC50: < 1 nM

## COC(=O)N[C@H](C(=O)N1CCC[C@H]1c1ncc(-c2ccc3cc(-c4ccc5nc([C@@H]6CCCN6C(=O)[C@H](NC(=O)OC)c6ccccc6)[nH]c5c4)ccc3c2)[nH]1)C(C)C [compound 181]
  EC50: < 1 nM

## COC(=O)N[C@H](C(=O)N1CCC[C@H]1c1ncc(-c2ccc3nc(-c4ccc5c(ccc6nc([C@@H]7CCCN7C(=O)[C@@H](NC(=O)OC)C(C)C)[nH]c65)c4)ccc3c2)[nH]1)C(C)C [compound 296]
  EC50: < 1 nM

## COC(=O)N[C@H](C(=O)N1CCC[C@H]1c1nc(-c2ccc3cc(-c4ccc(-c5cnc([C@@H]6CCCN6C(=O)[C@@H](NC(=O)OC)[C@@H](C)OC)[nH]5)cc4)ccc3c2)c[nH]1)[C@@H](C)OC [compound 3]
  EC50: < 1 nM

## COC(=O)N[C@H](C(=O)N1CCC[C@H]1c1ncc(-c2ccc(-c3nc4cc(-c5cnc([C@@H]6CCCN6C(=O)[C@@H](NC(=O)OC)C(C)C)[nH]5)ccc4n3C)cc2)[nH]1)C(C)C [compound 232]
  EC50: < 1 nM

## COC(=O)N[C@H](C(=O)N1CCC[C@H]1c1nc(-c2cnc3cc(-c4ccc(-c5cnc([C@@H]6CCCN6C(=O)[C@H](NC(=O)OC(C)(C)C)c6ccccc6)[nH]5)cc4)ccc3c2)c[nH]1)C1CCOCC1 [compound 72]
  EC50: < 1 nM

## COC(=O)N[C@H](C(=O)N1CCC[C@H]1c1nc(-c2ccc3nc(-c4ccc(-c5cnc([C@@H]6CCCN6C(=O)[C@H](NC(=O)OC(C)(C)C)c6ccccc6)[nH]5)cc4)ccc3c2)c[nH]1)C(C)C [compound 30]
  EC50: < 1 nM

## COC(=O)N[C@H](C(=O)N1CCC[C@H]1c1ncc(-c2ccc(-c3ccc4cc(-c5cnc([C@@H]6CCCN6C(=O)[C@H](NC(=O)OC6CCOCC6)c6ccccc6)[nH]5)ccc4n3)c(F)c2)[nH]1)C(C)C [compound 121]
  EC50: < 1 nM

## COC(=O)N[C@H](C(=O)N1CCC[C@H]1c1nc(-c2ccc3nc(-c4ccc(-c5cnc([C@@H]6CCCN6C(=O)[C@@H](NC(=O)OC)C(C)C)[nH]5)cc4F)ccc3c2)c[nH]1)C(C)C [compound 96]
  EC50: < 1 nM

## COC(=O)N[C@H](C(=O)N1CCC[C@H]1c1ncc(-c2ccc(-c3ccc4cc(-c5c[nH]c([C@@H]6CCCN6C(=O)[C@H](NC(=O)OC)c6ccccc6)n5)ccc4c3)nc2)[nH]1)C(C)C [compound 48]
  EC50: < 1 nM

## COC(=O)N[C@H](C(=O)N1CCC[C@H]1c1ncc(-c2ccc(-c3ccc4cc(-c5cnc([C@@H]6CCCN6C(=O)[C@H](NC(=O)OC6CCOCC6)c6ccccc6)[nH]5)ccc4n3)cc2F)[nH]1)C(C)C [compound 125]
  EC50: < 1 nM

## COC(=O)N[C@H](C(=O)N1CCC[C@H]1c1ncc(-c2ccc(-c3ccc4cc(-c5cnc([C@@H]6COCCN6C(=O)[C@@H](NC(=O)OC)C(C)C)[nH]5)ccc4c3)cc2)[nH]1)C(C)C [compound 140]
  EC50: < 1 nM

## COC(=O)N[C@H](C(=O)N1CCC[C@H]1c1ncc(-c2ccc3cc(-c4ccc5c(c4)CCc4nc([C@@H]6CCCN6C(=O)[C@@H](NC(=O)OC)C(C)C)[nH]c4-5)ncc3c2)[nH]1)C(C)C [compound 292]
  EC50: < 1 nM

## COC(=O)N[C@H](C(=O)N1CCC[C@H]1c1nc(-c2ccc3cc(-c4ccc(-c5cnc([C@@H]6CCCN6C(=O)[C@@H](c6ccccc6)N(C)C)[nH]5)cc4)ccc3c2)c[nH]1)C(C)C [compound 5]
  EC50: < 1 nM

## COC(=O)N[C@H](C(=O)N1CCC[C@H]1c1ncc(-c2ccc(-c3nc4cc(-c5cnc([C@@H]6CCCN6C(=O)[C@@H](NC(=O)OC)C(C)C)[nH]5)ccc4o3)cc2)[nH]1)C(C)C [compound 236]
  EC50: < 1 nM

## COC(=O)N[C@@H](C(=O)N1CCC[C@H]1c1ncc(-c2ccc(-c3nc4ccc(-c5cnc([C@@H]6CCCN6C(=O)[C@H](NC(=O)OC)c6ccccc6)[nH]5)cc4o3)cc2)[nH]1)c1ccccc1 [compound 235]
  EC50: < 1 nM

## COC(=O)N[C@H](C(=O)N1CCC[C@H]1c1ncc(-c2ccc(-c3ccc4cc(-c5cnc([C@@H]6CCCN6C(=O)[C@H](NC(=O)OC(C)(C)C)c6ccccc6)[nH]5)ccc4n3)c(F)c2)[nH]1)C(C)C [compound 122]
  EC50: < 1 nM

## COC(=O)N[C@H](C(=O)N1CCC[C@H]1c1ncc(-c2ccc3cc(-c4ccc5nc([C@@H]6CCCN6C(=O)[C@@H](NC(=O)OC)C6CCOCC6)[nH]c5n4)ccc3c2)[nH]1)C1CCOCC1 [compound 205]
  EC50: < 1 nM

## COC(=O)N[C@H](C(=O)N1CCC[C@H]1c1ncc(-c2ccc3c(-c4ccc5[nH]c([C@@H]6CCCN6C(=O)[C@@H](NC(=O)OC)C(C)C)nc5c4)cccc3c2)[nH]1)C(C)C [compound 214]
  EC50: 10 to 999 nM

## COC(=O)N[C@H](C(=O)N1CCC[C@H]1c1nc(-c2ccc3cc(-c4ccc(-c5cnc([C@@H]6CCCN6C(=O)[C@@H](NC(=O)OC)C6CCOCC6)[nH]5)cc4)ccc3c2)c[nH]1)C(C)C [compound 46]
  EC50: < 1 nM

## COC(=O)N[C@H](C(=O)N1CCC[C@H]1c1ncc(-c2ccc(-c3ccc4cc(-c5c[nH]c([C@@H]6CCCN6C(=O)[C@H](NC(=O)OC6CCOCC6)c6ccccc6)n5)ccc4n3)cc2)[nH]1)C1CCOCC1 [compound 92]
  EC50: < 1 nM
